Laboratory results published in ChEMBL document CHEMBL5360558, “Molecular design, synthesis and anticancer activity of new thiopyrano[2,3-d]thiazoles based on 5-hydroxy-1,4-naphthoquinone (juglone)” (Eur J Med Chem, 2023).
Active and inactive are the calls of the source. No cut-off for these calls is given here.

Tests used:
COLO 205 [1] = assay: Growth inhibition against human COLO 205 cells assessed as total growth inhibitory concentration incubated for 48 hrs by sulforhodamine B spectrophotometric assay; type: functional
DU-145 = assay: Anticancer activity against human DU-145 cells assessed as cell growth at 10 uM incubated for 48 hrs by sulforhodamine B assay; type: functional; conditions: read-out: Activity
SNB-19 = assay: Growth inhibition against human SNB-19 cells assessed as total growth inhibitory concentration incubated for 48 hrs by sulforhodamine B spectrophotometric assay; type: functional
KB 3-1 [2] = assay: Cytotoxicity against human KB 3-1 cells assessed as cell growth inhibition incubated for 72 hrs by MTT assay; type: functional, cell-based; conditions: KB 3-1, 72 h
SF-268 = assay: Growth inhibition of human SF-268 cells incubated for 48 hrs by sulforhodamine B spectrophotometric assay; type: functional
CCRF-CEM [3] = assay: Induction of cell cycle arrest in human CCRF-CEM cells assessed as accumulation of cells at sub-G1 phase at 20.7 uM incubated for 24 hrs by propidium iodide staining based flow cytometry analysis (reference value: 2.36 +/- 0.049%); type: functional
K562 = assay: Growth inhibition against human K562 cells assessed as lethal concentration incubated for 48 hrs by sulforhodamine B spectrophotometric assay; type: functional; conditions: read-out: LC50 (the source's name)
OVCAR-8 = assay: Growth inhibition of human OVCAR-8 cells incubated for 48 hrs by sulforhodamine B spectrophotometric assay; type: functional
786-0 = assay: Growth inhibition against human 786-0 cells assessed as total growth inhibitory concentration incubated for 48 hrs by sulforhodamine B spectrophotometric assay; type: functional
CAKI-1 [4] = assay: Growth inhibition of human CAKI-1 cells incubated for 48 hrs by sulforhodamine B spectrophotometric assay; type: functional
Hs-578T = assay: Growth inhibition against human Hs-578T cells assessed as lethal concentration incubated for 48 hrs by sulforhodamine B spectrophotometric assay; type: functional; conditions: read-out: LC50 (the source's name)
OVCAR-4 = assay: Growth inhibition against human OVCAR-4 cells assessed as lethal concentration incubated for 48 hrs by sulforhodamine B spectrophotometric assay; type: functional; conditions: read-out: LC50 (the source's name)
CCRF-CEM [5] = assay: Induction of cell cycle arrest in human CCRF-CEM cells assessed as accumulation of cells at higher G2/M phase at 20.7 uM incubated for 24 hrs by propidium iodide staining based flow cytometry analysis (reference value: 10.09 +/- 0.14%); type: functional
MDA-MB-468 = assay: Growth inhibition against human MDA-MB-468 cells assessed as total growth inhibitory concentration incubated for 48 hrs by sulforhodamine B spectrophotometric assay; type: functional
RPMI-8226 = assay: Growth inhibition of human RPMI-8226 cells incubated for 48 hrs by sulforhodamine B spectrophotometric assay; type: functional
HCC 2998 [6] = assay: Growth inhibition against human HCC 2998 cells assessed as total growth inhibitory concentration incubated for 48 hrs by sulforhodamine B spectrophotometric assay; type: functional
CCRF-CEM [7] = assay: Induction of cell cycle arrest in human CCRF-CEM cells assessed as accumulation of cells at higher G2/M phase at 4.14 uM incubated for 24 hrs by propidium iodide staining based flow cytometry analysis (reference value: 10.09 +/- 0.14%); type: functional
NCI-H460 = assay: Growth inhibition against human NCI-H460 cells assessed as total growth inhibitory concentration incubated for 48 hrs by sulforhodamine B spectrophotometric assay; type: functional
COLO 205 [8] = assay: Growth inhibition against human COLO 205 cells assessed as lethal concentration incubated for 48 hrs by sulforhodamine B spectrophotometric assay; type: functional; conditions: read-out: LC50 (the source's name)
HCT-15 = assay: Growth inhibition against human HCT-15 cells assessed as lethal concentration incubated for 48 hrs by sulforhodamine B spectrophotometric assay; type: functional; conditions: read-out: LC50 (the source's name)
HL-60 = assay: Growth inhibition of human HL-60 cells incubated for 48 hrs by sulforhodamine B spectrophotometric assay; type: functional
NCI-H322M = assay: Growth inhibition of human NCI-H322M cells incubated for 48 hrs by sulforhodamine B spectrophotometric assay; type: functional
[9] = Acute toxicity in C57BL/6 mouse assessed as ratio of kidney weight to body weight at 20 mg/kg,ip administration and observed after 22 days (reference value: 1.39 +/- 0.09); type: organism-based; conditions: in vivo, 528 h, time 22 day
ACHN = assay: Growth inhibition against human ACHN cells assessed as lethal concentration incubated for 48 hrs by sulforhodamine B spectrophotometric assay; type: functional; conditions: read-out: LC50 (the source's name)
CCRF-CEM [10] = assay: Induction of cell cycle arrest in human CCRF-CEM cells assessed as RNA synthesis at 20.7 uM incubated for 3 hrs by […] incorporation based flow cytometry analysis (reference value: 31.8 +/- 1.17%); type: functional
CCRF-CEM [11] = assay: Induction of cell cycle arrest in human CCRF-CEM cells assessed as RNA synthesis at 4.14 uM incubated for 3 hrs by […] incorporation based flow cytometry analysis (reference value: 31.8 +/- 1.17%); type: functional
CAKI-1 [12] = assay: Growth inhibition against human CAKI-1 cells assessed as total growth inhibitory concentration incubated for 48 hrs by sulforhodamine B spectrophotometric assay; type: functional
MDA-MB-435 = assay: Growth inhibition of human MDA-MB-435 cells incubated for 48 hrs by sulforhodamine B spectrophotometric assay; type: functional
SN12C [13] = assay: Growth inhibition of human SN12C cells incubated for 48 hrs by sulforhodamine B spectrophotometric assay; type: functional
KB 3-1 [14] = assay: Induction of apoptosis in human KB 3-1 cells assessed as increase in […] protein expression at 0.5 to 5 uM incubated for 3 hrs by Western blotting assay; type: functional, cell-based; conditions: dose 0.5-5 µM
UACC-62 = assay: Growth inhibition against human UACC-62 cells assessed as total growth inhibitory concentration incubated for 48 hrs by sulforhodamine B spectrophotometric assay; type: functional
M14 = assay: Growth inhibition against human M14 cells assessed as lethal concentration incubated for 48 hrs by sulforhodamine B spectrophotometric assay; type: functional; conditions: read-out: LC50 (the source's name)
CCRF-CEM [15] = assay: Growth inhibition against human CCRF-CEM cells assessed as total growth inhibitory concentration incubated for 48 hrs by sulforhodamine B spectrophotometric assay; type: functional
[16] = Antileukemic activity against human CLL cell assessed as cell growth inhibition incubated for 72 hrs by MTT assay; type: functional, cell-based
CCRF-CEM [17] = assay: Induction of cell cycle arrest in human CCRF-CEM cells assessed as accumulation of cells at M phase at 4.14 uM incubated for 24 hrs by propidium iodide staining based flow cytometry analysis (reference value: 1.97 +/- 0.042%); type: functional
HCT-116 = assay: Cytotoxicity against human HCT-116 cells assessed as cell growth inhibition incubated for 72 hrs by MTT assay; type: functional, cell-based; conditions: HCT-116, 72 h
SN12C [18] = assay: Growth inhibition against human SN12C cells assessed as total growth inhibitory concentration incubated for 48 hrs by sulforhodamine B spectrophotometric assay; type: functional
OVCAR-3 = assay: Growth inhibition against human OVCAR-3 cells assessed as lethal concentration incubated for 48 hrs by sulforhodamine B spectrophotometric assay; type: functional; conditions: read-out: LC50 (the source's name)
HCC 2998 [19] = assay: Growth inhibition of human HCC 2998 cells incubated for 48 hrs by sulforhodamine B spectrophotometric assay; type: functional
SK-MEL-28 = assay: Growth inhibition of human SK-MEL-28 cells incubated for 48 hrs by sulforhodamine B spectrophotometric assay; type: functional
SR = assay: Growth inhibition of human SR cells incubated for 48 hrs by sulforhodamine B spectrophotometric assay; type: functional

## O=C1C2=C(C(=O)c3c(O)cccc31)C(c1ccco1)c1sc(=O)[nH]c1S2 (stereo unspecified)
COLO 205 [1]
  TGI: 3.61 µM
DU-145
  growth at 10 µM: -93.9%
SNB-19
  TGI: 7.33 µM
KB 3-1 [2]
  IC50: 0.75 µM
SF-268
  GI50: 3.48 µM
CCRF-CEM [3]
  Activity: 5.8%
K562
  CC50: > 100 µM
OVCAR-8
  GI50: 2.46 µM
786-0
  TGI: 24.2 µM
CAKI-1 [4]
  GI50: 3.29 µM
Hs-578T
  CC50: > 100 µM
OVCAR-4
  CC50: 8.71 µM
CCRF-CEM [5]
  Activity: 20.54%
MDA-MB-468
  TGI: 6.59 µM
RPMI-8226
  GI50: 2.62 µM
HCC 2998 [6]
  TGI: 5.51 µM
CCRF-CEM [7]
  Activity: 12.23%
NCI-H460
  TGI: 3.48 µM
COLO 205 [8]
  CC50: 6.93 µM
HCT-15
  CC50: 8.59 µM
HL-60
  GI50: 1.82 µM
NCI-H322M
  GI50: 1.71 µM
[9]
  Ratio: 1.28
ACHN
  CC50: 40.1 µM
CCRF-CEM [10]
  Activity: 0.07%
CCRF-CEM [11]
  Activity: 23.46%
CAKI-1 [12]
  TGI: 13.9 µM
MDA-MB-435
  GI50: 1.16 µM
SN12C [13]
  GI50: 1.74 µM
KB 3-1 [14]
  Activity: inactive
UACC-62
  TGI: 3.43 µM
M14
  CC50: 5.26 µM
CCRF-CEM [15]
  TGI: > 100 µM
[16]
  IC50: > 50 µM
CCRF-CEM [17]
  Activity: 1.25%
HCT-116
  IC50: 0.6 µM
SN12C [18]
  TGI: 3.49 µM
OVCAR-3
  CC50: > 100 µM
HCC 2998 [19]
  GI50: 2.5 µM
SK-MEL-28
  GI50: 1.87 µM
SR
  GI50: 3.05 µM
